Test results taken from patent US20110105565A1, “WATER SOLUBLE SMALL MOLECULE INHIBITORS OF THE CYSTIC FIBROSIS TRANSMEMBRANE CONDUCTANCE REGULATOR” (THE REGENTS OF THE UNIVERSITY OF CALIFORNIA, priority 2008, published 2011).
In brackets after ≈: the same amount, converted by molar mass. Several values for one entry are separate records, joined by “and”; a condition that tells them apart may be missing. Equal values may be shown once.

How the values were obtained:
[1] = Solubility measurements in saline (PBS, LC/MS); type: physicochemical; details: for Solubility in saline: Table 3, PBS, DMSO <2%; for solubility in saline / aqueous solubility: values in text, LC/MS
Protocol: Solubility measurements. A saturated compound solution was prepared by addition of DMSO stock to phosphate buffered saline (final DMSO 2%) followed by sonication for 5 min at 25° C. and shaking at room temperature for 1 h. After centrifugation at 15,000 rpm for 1 h, the supernatant was analyzed by LC/MS with concentration determined from area under the curve, standardized against calibration data. A standard curve for each compound was obtained by plotting area under the curve from chromatograms against inhibitor concentration. The concentration range of the standard solutions was 1-15 μM (for 5) and 1-100 μM (other compounds). In all cases, standard curves prepared were linear with r>0.998.
A saturated drug solution of a compound was prepared by addition of the compound in DMSO to phosphate buffered saline (PBS), followed by sonication for 5 min at 25° C. Final concentration of DMSO was <2%. Each saturated solution was centrifuged and filtered. The saturated supernatant solution was diluted and injected into LC/MS. The concentration was determined from area under the curve using a calibration curve.

FRT cells = experiment: Cytotoxicity measurements, crystal violet staining of FRT cells; type: cell-based, rat; details: 48 h; for % Cell viability 20 μM / % Cell viability 50 μM: crystal violet staining
Protocol: Cytotoxicity measurements. FRT cells in confluent monolayers were incubated with compounds for 2 days. Cells were washed 3 times, fixed (cytofix, 30 min) and stained with crystal violet (100 μl, 0.5%, 10 min) using standard procedures. Excess crystal violet was removed by washing, and dye was extracted with Sorenson's buffer (0.1 M sodium citrate, 50% ethanol, pH 4.2). Crystal violet was quantified by measurement of absorbance at 650 nm. The percentage crystal violet staining was determined from test wells measured 8 times, compared to blanks (wells not containing cells) and vehicle-treated cells.
Cytotoxicity analysis was performed for Tetrazolo-172, Oxo-172, α-Me-172 and Pyridine-NO-172 (Compound 17) and compared with CFTRinh-172 (Table 3). […] Crystal violet staining was reduced for Tetrazolo-172 and α-Me-172 at 50 μM.

MDCK cells [2] = experiment: MDCK cell cyst model of polycystic kidney disease; type: cell-based, Canine; details: 10 μM
Source text: An MDCK cell model of polycystic kidney disease was used to screen CFTR inhibitors of the thiazolidinone and glycine hydrazide classes for reducing cyst formation and expansion. […] Culture of MDCK cells in three-dimensional collagen gels produces a polarized, single-layer, thinned epithelium surrounding a fluid-filled space, apical […] microvilli, a solitary cilium, and apical tight junctions (see, e.g., McAteer et al., Scan Elect Microsc (Pt 3): 1135-1150, 1986; McAteer et al., Scanning Microsc 2: 1739-1763, 1988; and Taide et al., Eur J Clin Invest 26: 506-513, 1996).
Type I MDCK cells (ATCC No. CCL-34) were cultured at 37° C. in a humidified 95% air/5% CO2 atmosphere in a 1:1 mixture of Dulbecco's modified Eagle's medium (DMEM) and Ham's F-12 nutrient medium supplemented with 10% fetal bovine serum (Hyclone), 100 U/mL penicillin and 100 μg/mL streptomycin. To generate cysts, four hundred MDCK cells were suspended in 0.4 ml of ice-cold Minimum Essential Medium containing 2.9 mg/mL collagen (PuRECOL, Inamed Biomaterials, Fremont Calif.), 10 mM HEPES, 27 mM NaHCO3, 100 U/mL penicillin and 100 μg/mL streptomycin (pH 7.4). The cell suspension was plated onto 24-well plates. After gelation, 1.5 mL of MDCK cell medium containing 10 μM forskolin was added to each well and plates were maintained at 37° C. in a 5% CO2 humidified atmosphere.
The compound structures together with their approximate CFTR inhibition potencies (expressed as IC50 values) are provided in FIGS. 3 and 4. Indicated IC50 values for T01-07, T10, T12-14 were reported by Ma et al. (J Clin Invest 110: 1651-1658 (2002)). IC50 values for T08, T11, and T16 were determined by short-circuit analysis performed according to methods described herein. Indicated IC50 values for G01-05, G8-16 were reported by Sonawane et al. (FASEB J. 20: 130-132 (2006); Sonawane et al., Gastroenterology 132:1234-44 (2007)). IC50 values for G06 and G07 were determined by short-circuit current analysis performed according to methods described herein.
Medium containing forskolin and test compounds was changed every 12 h. At day 6, cysts (with diameters >50 μm) and non-cyst cell colonies were counted by phase-contrast light microscopy at 20× magnification (546 nm monochromatic illumination) using a Nikon TE 2000-S inverted microscope. In some experiments, compounds were added to medium in the continued presence of forskolin from day 4 after seeding and the medium containing forskolin and compounds was changed every 12 h for 8 days. Micrographs showing the same cysts in collagen gels (identified by markings on plates) were obtained every 2 days. For determination of cyst growth, cyst diameters were measured using Image J software. At least 10 cysts/well and 3 wells/group were measured for each condition.

[3] = cited references; cited from earlier work
human wildtype CFTR [4] = target: T1, human wildtype CFTR (Homo sapiens, UniProt P13569); experiment: Fluorescence cell-based assay of CFTR inhibition (YFP iodide influx, FRT cells); set-up: expressed in transfected cells; host or cells: Fisher rat thyroid (FRT) cells; details: for CFTR inhibitory activity (in words): structure-activity discussion
human wildtype CFTR [5] = target: T1, human wildtype CFTR; experiment: Short-circuit current measurements, apical chloride current in FRT cells; type: cell-based; set-up: expressed in transfected cells; host or cells: FRT (Fisher rat thyroid) cells; details: for inhibition of CFTR in short-circuit current analysis (in words): increasing concentration, forskolin-stimulated
MDCK cells [6] = experiment: MDCK cell cytotoxicity, crystal violet staining; type: cell-based, Canine; details: 20 μM, 72 h
Protocol: To test whether inhibition of cyst growth could be related to cytotoxicity, certain compounds were tested for their effects on cell viability, cell proliferation and apoptosis. Crystal violet staining was used to assess compound effects on cytotoxicity (see, e.g., Johnson et al., Clin Cancer Res 11: 6924-6932, 2005). MDCK cells were incubated for 24 h on 96-well plates, and then incubated for 72 h with test compounds at 20 μM. Medium was removed and adherent cells were fixed and stained for 30 min with 0.5% crystal violet in 20% methanol. Plates were washed with distilled water, and the stain was extracted with Sorenson's buffer (0.1 mol/L sodium citrate, pH 4.2, in 50% ethanol) overnight at 4° C., and absorbance measured at 570 nm.

[7] = Table 1, upper part, CFTR inhibitory activity, given as ranges, read-out: IC50
[8] = Table 2 summary table, given as ranges, read-out: IC50
[9] = Table 3, inhibition potency, read-out: IC50
[10] = values in text, forskolin-stimulated CFTR, read-out: IC50 (short-circuit current)
[11] = Table 1, lower parts, given as ranges, read-out: IC50

T1 sequence (P13569 whole entry): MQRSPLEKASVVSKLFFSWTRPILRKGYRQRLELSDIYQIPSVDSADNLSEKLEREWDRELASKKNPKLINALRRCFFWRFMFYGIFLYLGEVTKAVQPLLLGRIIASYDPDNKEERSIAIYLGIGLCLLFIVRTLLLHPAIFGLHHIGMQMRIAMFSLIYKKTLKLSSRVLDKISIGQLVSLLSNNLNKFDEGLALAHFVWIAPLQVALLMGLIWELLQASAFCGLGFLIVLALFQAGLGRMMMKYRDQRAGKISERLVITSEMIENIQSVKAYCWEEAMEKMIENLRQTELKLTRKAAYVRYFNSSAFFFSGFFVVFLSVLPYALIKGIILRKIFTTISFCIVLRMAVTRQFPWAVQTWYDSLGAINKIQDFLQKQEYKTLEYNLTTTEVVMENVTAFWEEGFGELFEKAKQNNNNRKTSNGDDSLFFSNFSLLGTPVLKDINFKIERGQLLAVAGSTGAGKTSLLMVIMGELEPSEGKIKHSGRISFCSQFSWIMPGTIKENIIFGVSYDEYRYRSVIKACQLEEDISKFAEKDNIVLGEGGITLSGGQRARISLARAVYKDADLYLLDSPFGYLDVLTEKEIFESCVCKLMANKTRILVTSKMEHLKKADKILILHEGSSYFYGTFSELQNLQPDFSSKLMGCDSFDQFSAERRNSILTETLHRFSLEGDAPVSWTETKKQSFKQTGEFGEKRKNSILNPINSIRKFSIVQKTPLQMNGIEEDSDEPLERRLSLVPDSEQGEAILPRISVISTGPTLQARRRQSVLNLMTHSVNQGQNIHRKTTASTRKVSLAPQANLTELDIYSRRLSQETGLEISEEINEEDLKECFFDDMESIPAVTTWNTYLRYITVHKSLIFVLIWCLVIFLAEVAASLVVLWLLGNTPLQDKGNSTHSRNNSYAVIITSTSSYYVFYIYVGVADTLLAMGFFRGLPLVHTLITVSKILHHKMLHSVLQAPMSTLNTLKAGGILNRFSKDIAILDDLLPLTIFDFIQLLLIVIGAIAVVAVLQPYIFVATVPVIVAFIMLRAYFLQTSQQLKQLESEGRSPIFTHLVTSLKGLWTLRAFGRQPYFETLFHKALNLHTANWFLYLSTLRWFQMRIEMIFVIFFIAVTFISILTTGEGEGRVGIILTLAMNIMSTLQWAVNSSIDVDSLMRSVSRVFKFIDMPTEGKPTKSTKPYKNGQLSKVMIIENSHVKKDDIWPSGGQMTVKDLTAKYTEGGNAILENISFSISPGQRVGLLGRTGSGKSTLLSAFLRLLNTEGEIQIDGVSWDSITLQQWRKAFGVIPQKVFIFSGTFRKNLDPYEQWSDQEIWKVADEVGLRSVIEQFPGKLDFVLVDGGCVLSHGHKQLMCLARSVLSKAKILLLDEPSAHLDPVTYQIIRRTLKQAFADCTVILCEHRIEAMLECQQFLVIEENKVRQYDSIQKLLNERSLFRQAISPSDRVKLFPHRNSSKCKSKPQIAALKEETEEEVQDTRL

| Solubility in saline [1] [µM] | IC50 (human wildtype CFTR [4]; [7]) [µM] | IC50 (human wildtype CFTR [4]; [8]) [µM] | IC50 (human wildtype CFTR [5]; [9]) [µM] | IC50 (human wildtype CFTR [5]; [10]) | CFTR inhibitory activity (in words) (human wildtype CFTR [4]) | solubility in saline / aqueous solubility [1] [µM] | IC50 (human wildtype CFTR [4]; Tables 1 and 2, read-out: IC50 (CFTR inhibition)) [µM] | inhibition of CFTR in short-circuit current analysis (in words) (human wildtype CFTR [5]) | increase of solubility in saline/water relative to CFTRinh-172 [1] [fold] | IC50 (human wildtype CFTR [4]; [11]) [µM] | reduction of CFTR inhibition potency relative to CFTRinh-172 (human wildtype CFTR [5]; short-circuit current assays) [fold] | water solubility (in words) [1] | SMILES | % Cell viability 20 μM (FRT cells) [%] | effect on MDCK cyst enlargement/formation (in words) (MDCK cells [2]) | water solubility [3] | MDCK cell viability (in words) (MDCK cells [6]) | Crystal violet staining at 50 μM (in words) (FRT cells; 50 μM) | % Cell viability 50 μM (FRT cells; 50 μM) [%] |
| --- | --- | --- | --- | --- | --- | --- | --- | --- | --- | --- | --- | --- | --- | --- | --- | --- | --- | --- | --- |
| 17 (≈ 6.96 µg/mL) | 0.1 to 1 | 0.1 to 1 | 0.38 ± 0.04 | 0.4 µM and 0.25 to 0.5 µM |  |  |  |  |  |  |  |  | O=C(O)c1ccc(/C=C2\SC(=S)N(c3cccc(C(F)(F)F)c3)C2=O)cc1 [Compound 5, (Z)-4-((4-oxo-2-thioxo-3-(3-(trifluoromethyl)phenyl)thiazolidin-5-ylidene)methyl)benzoic acid, reference compound] | 86 | inhibited cyst formation, but to a lesser extent | less than 17 μM |  |  |  |
|  | 5 to 10 | 5 to 10 |  |  | modest inhibition activity |  |  |  |  |  |  |  | O=C1/C(=C/c2cc(Br)c(O)c(Br)c2O)SC(=S)N1c1cccc(C(F)(F)F)c1 [Compound 15, (Z)-5-(3,5-dibromo-2,4-dihydroxybenzylidene)-2-thioxo-3-(3-(trifluoromethyl)phenyl) thiazolidin-4-one] |  |  |  | reduced MDCK cell viability |  |  |
|  |  | 5 to 10 | 8.7 ± 0.7 | 9 µM and 7 to 9 µM |  | 264 (≈ 101 µg/mL) | 5 to 10 | dose dependant inhibition |  |  |  |  | O=C1/C(=C/c2cc[n+]([O-])cc2)SC(=S)N1c1cccc(C(F)(F)F)c1 [Compound 17, (Z)-4-((4-oxo-2-thioxo-3-(3-(trifluoromethyl)phenyl)thiazolidin-5-ylidene)methyl)pyridine 1-oxide] |  |  |  |  |  |  |
|  | 5 to 10 | 5 to 10 | 8.2 ± 0.4 | 8 µM and 8 to 10 µM |  | 259 (≈ 110 µg/mL) |  | dose dependant inhibition |  |  |  |  | Cc1c(N2C(=O)/C(=C/c3ccc(C(=O)O)cc3)SC2=S)cccc1C(F)(F)F [Compound 18, (Z)-4-((3-(2-methyl-3-(trifluoromethyl)phenyl)-4-oxo-2-thioxothiazolidin-5-ylidene)methyl)benzoic acid] | 89 |  |  |  | reduced | 72 |
| 420 (≈ 165 µg/mL) |  | 1 to 2 | 1.4 ± 0.2 | 1 to 2 µM |  |  |  | dose dependant inhibition | ~25 | 1 to 2 | 3.6 |  | O=C(O)c1ccc(/C=C2\SC(=O)N(c3cccc(C(F)(F)F)c3)C2=O)cc1 [Compound 47, (Z)-4-((2,4-dioxo-3-(3-(trifluoromethyl)phenyl)thiazolidin-5-ylidene)methyl)benzoic acid] | 93 |  |  |  |  | 91 |
|  |  | 10 to 20 |  |  | inactive |  |  |  |  | 10 to 20 |  | highly water soluble | O=C(O)c1ccc(NC(=S)C2SC(=S)N(c3cccc(C(F)(F)F)c3)C2=O)cc1O (centres unmarked) [Compound 52, 2-hydroxy-4-(4-oxo-2-thioxo-3-(3-(trifluoromethyl)phenyl)thiazolidine-5-carbothioamido)benzoic acid] |  |  |  |  |  |  |
